Test results published in the NIST ThermoML archive (doi:10.1021/je9006019).
Where “and” joins values, the source holds several entries; their conditions need not be identical. Equal values may be shown once.

Assay: mn = molality of the nth substance listed, in mol/kg
Conditions: 101 kPa, Liquid; for viscosity: Capillary tube (Ostwald / Ubbelohde) method; for electrical conductivity: DIgital conductivity meter (306) of Systronics; for speed of sound: Pulse-echo method

CCCCCCCCCCCCOS(=O)(=O)[O-].[Na+] [sodium dodecyl sulfate] + O
Conditions | electrical conductivity [S/m] | mass density [kg/m3] | speed of sound | viscosity [mPa·s]
298.15 K, m1 = 0.001 | – | – | 1497.2 m/s | –
298.15 K, m1 = 0.003 | – | – | 1497.5 m/s | –
298.15 K, m1 = 0.005 | – | – | 1497.8 m/s | –
298.15 K, m1 = 0.007 | – | – | 1497.9 m/s | –
298.15 K, m1 = 0.008 | – | – | 1497.9 m/s | –
298.15 K, m1 = 0.01 | – | – | 1498.1 m/s | –
298.15 K, m1 = 0.02 | – | – | 1498.2 m/s | –
298.15 K, m1 = 0.03 | – | – | 1498.4 m/s | –
298.15 K, m1 = 0.05 | 1 | 999.078 | 1498.3 m/s and 1498.3 m/s | 0.986
298.15 K, m1 = 0.07 | – | – | 1498.2 m/s | –
298.15 K, m1 = 0.1 | 2.6 | 1000.97 | 1498 m/s | 1.133
298.15 K, m1 = 0.103 | – | – | 1498.2 m/s | –
303.15 K, m1 = 0.001 | – | – | 1509.5 m/s | –
303.15 K, m1 = 0.003 | – | – | 1509.8 m/s | –
303.15 K, m1 = 0.005 | – | – | 1510.1 m/s | –
303.15 K, m1 = 0.007 | – | – | 1510.1 m/s | –
303.15 K, m1 = 0.008 | – | – | 1510.2 m/s | –
303.15 K, m1 = 0.01 | – | – | 1510.3 m/s | –
303.15 K, m1 = 0.02 | – | – | 1510.3 m/s | –
303.15 K, m1 = 0.03 | – | – | 1510.4 m/s | –
303.15 K, m1 = 0.05 | – | – | 1510.2 m/s | –
303.15 K, m1 = 0.07 | – | – | 1509.9 m/s | –
303.15 K, m1 = 0.103 | – | – | 1509.7 m/s | –
308.15 K, m1 = 0.001 | – | – | 1520.1 m/s | –
308.15 K, m1 = 0.003 | – | – | 1520.4 m/s | –
308.15 K, m1 = 0.005 | – | – | 1520.6 m/s | –
308.15 K, m1 = 0.007 | – | – | 1520.7 m/s | –
308.15 K, m1 = 0.008 | – | – | 1520.7 m/s | –
308.15 K, m1 = 0.01 | – | – | 1520.8 m/s | –
308.15 K, m1 = 0.02 | – | – | 1520.8 m/s | –
308.15 K, m1 = 0.03 | – | – | 1520.7 m/s | –
308.15 K, m1 = 0.05 | 2.1 | 995.942 | 1520.3 m/s and 1520.2 m/s | 0.79
308.15 K, m1 = 0.07 | – | – | 1519.9 m/s | –
308.15 K, m1 = 0.1 | 3.4 | 997.734 | 1519.1 m/s | 0.87
308.15 K, m1 = 0.103 | – | – | 1519.3 m/s | –
313.15 K, m1 = 0.001 | – | – | 1529 m/s | –
313.15 K, m1 = 0.003 | – | – | 1529.3 m/s | –
313.15 K, m1 = 0.005 | – | – | 1529.5 m/s | –
313.15 K, m1 = 0.007 | – | – | 1529.5 m/s | –
313.15 K, m1 = 0.008 | – | – | 1529.6 m/s | –
313.15 K, m1 = 0.01 | – | – | 1529.7 m/s | –
313.15 K, m1 = 0.02 | – | – | 1529.5 m/s | –
313.15 K, m1 = 0.03 | – | – | 1529.4 m/s | –
313.15 K, m1 = 0.05 | – | – | 1528.8 m/s | –
313.15 K, m1 = 0.07 | – | – | 1528.2 m/s | –
313.15 K, m1 = 0.103 | – | – | 1527.3 m/s | –
